Assay [1] concerns thrombus formation in mesenteric venules. Kind of assay: Fluorescein sodium-mediated thrombus formation in mesenteric microvessels of mice. Type of assay: in vivo. The settings on record: n = 6, mean ± SEM (DMSO 117.7 ± 12.4 s). As to the method:
Male ICR mice (weighing 20–25 g and aged 5–6 weeks) were purchased from BioLasco (Taipei, Taiwan). The animal use protocol for this project was approved by the Affidavit of Approval of Animal Use Protocol–Taipei Medical University (LAC-2020–0074). All animal experiments were conducted in accordance with the Guide for the Care and Use of Laboratory Animals, Eighth Edition (2011).
The mice were anesthetized with an oxygen–air mixture containing 3% isoflurane at a gas flow rate of 1.5–2 L/min. A bolus dose (bolus volume: 20 μL) of compound 6 (0.3 mg/kg, 0.6 mg/kg, or 1.2 mg/kg), DMSO (solvent control; 1.1 g/kg), or aspirin (20 mg/kg; positive control) was intravenously administered through the tail vein before the administering sodium fluorescein (15 mg/kg). The small intestinal segments were placed on a transparent culture dish, and the mesenteric vessels were observed under a microscope. Venules (20–30 μm) were selected and irradiated with light (wavelength <520 nm) to induce endothelial damage, causing thrombus formation and subsequent vessel occlusion. The time required to occlude a microvessel was recorded ([Lin et al., 2013]). A formula for dose translation based on the […] was used to calculate the appropriate dose for use in the mice ([Reagan-Shaw et al., 2008]). [Reagan-Shaw et al. (2008)] reported that the animal dose should not be extrapolated to a human equivalent dose (HED) by a simple conversion based on body weight. […] The formula for dose translation based on BSA is as follows: HED (mg/kg) = Animal dose (mg/kg) multiply by Animal Km/Human Km. Mouse Km is 3 and Human Km is 37.
FIGURE 3 Effects of compound 6 on thrombosis and hemostasis in mice. Mice were treated with compound 6 (0.3, 0.6, or 1.2 mg/kg), DMSO (solvent control), or aspirin (20 mg/kg; positive control) via intravenous route for 10 min. (A) The microthrombus formation (arrows) in mesenteric venules. Scale bar = 30 μm. […] Each point on the plot indicates a mouse (n = 6). Data (A,B) are presented as means ± SEM (n = 6). *p < 0.05 and ***p < 0.001 compared with the DMSO group.

Assay [2] concerns collagen/epinephrine-induced pulmonary thrombosis. Put plainly: Collagen/epinephrine-induced pulmonary embolism in mice. The note with it: 1.2 mg/kg i.v., relative to DMSO group. The assay is classed as in vivo. As to the method:
Pulmonary embolism was induced using collagen and epinephrine in […] ICR mice according. Briefly, mice were intravenously injected with a bolus dose of DMSO (1.1 g/kg, solvent control), compound 6 (1.2 mg/kg), or aspirin (20 mg/kg, positive control). Subsequently, a mixture of collagen (0.6 mg/kg) and epinephrine (0.2 mg/kg) was administered via the tail vein. When respiration became severely weakened but the heart was still beating, 0.5 mL of Evans blue solution (1% in saline) was injected into the heart. The lungs were then excised and photographed. Mouse mortality was monitored for 24 h, and all surviving mice were euthanized immediately after the experiment. Each group consisted of six animals.
FIGURE 4 Effects of compound 6 on collagen/epinephrine-induced pulmonary thrombosis and FeCl3-induced thrombosis in mesenteric artery. Mice were intravenously administered with DMSO (solvent control), compound 6 (1.2 mg/kg), or aspirin (20 mg/kg, positive control) for 10 min (A) Mice were injected with collagen/epinephrine to induce pulmonary embolism, which was detected through staining with Evans blue (left panel). The survival rate was recorded for 24 h (right panel). […]
(A) Mice were injected with collagen/epinephrine to induce pulmonary embolism, which was detected through staining with Evans blue. (B) The survival rate was recorded for 24 h. […]

Assay [3] relates to GPIIb–IIIa activation in human platelets. Kind of assay: GPIIb-IIIa activation by flow cytometry (APC-PAC-1). The assay is classed as cell-based. The note with it: 2.5 and 5 μM, collagen 1 μg/mL, n = 4. Here is the method:
Flow cytometry was performed as previously described ([Lien et al., 2017]). After 20 min of collagen stimulation, the human platelets were fixed and labeled with APC-conjugated PAC-1 antibodies for 30 min to detect the level of GPIIb–IIIa activation. After centrifugation and washing, the platelets were suspended in 1 mL of phosphate-buffered saline and analyzed using a CytoFLEX flow cytometer (Beckman Coulter Life Sciences, Indianapolis, IN, United States). In the flow cytometry setup, platelets were gated using forward scatter and side scatter, and the number of events was set to stop at 10,000 counts. All experiments were performed at least three times to ensure reliable results.
FIGURE 8 Effects of compound 6 on ATP release, calcium mobilization, and GPIIb–IIIa activation triggered by collagen in human platelets. Washed platelets (3.6 × 10^8 cells/mL) were treated with compound 6 (C6, 2.5 and 5 μM) or DMSO and then stimulated with collagen (1 μg/mL) to trigger ATP release (A), calcium mobilization (B), and GPIIb–IIIa activation (C) that were detected using luciferase/luciferin, Fura-2 AM, and APC–PAC1 antibodies, respectively. Data (A–C) are presented as means ± SEM (n = 4). **p < 0.01 and ***p < 0.001 compared with the resting group. #p < 0.05, ##p < 0.01, and ###p < 0.001 compared with the DMSO (solvent control) group.

The source of these data is PMC12234328, “A naphthalimide derivative exerts potent antiplatelet and antithrombotic activities without a bleeding tendency” (Frontiers in Pharmacology, 2025).

Each structure is given as a SMILES string.

In the case of `CCCCN1C(=O)c2cccc3c(NCCNC(=O)C45CC6CC(CC(C6)C4)C5)ccc(c23)C1=O` [compound 6], the Occlusion time in assay [1] (0.3 mg/kg i.v.) was determined as 211.5 ± 15.8 s; in assay [1] (0.6 mg/kg i.v.), 333.5 ± 45.6 s; in assay [1] (1.2 mg/kg i.v.), 451.5 ± 27.4 s. Also, the “Collagen/epinephrine-induced pulmonary thrombosis (Evans blue staining of lung)” value in assay [2] was “could prevent”. For the same compound, the “GPIIb–IIIa activation” value in assay [3] is reported as “significantly reduce”.
